Assays:
Format in all cases: in vivo
[1] = test system: dysuria model rat (STZ-treated female Wistar rats); test: Effects of cholinergic agent and α1 blocker on vesicourethral dyssynergia of dysuria model rat (Comparative Example 2); conditions: STZ model four weeks after preparation; bethanechol 1 mg/kg i.v., tamsulosin 0.3 mg/kg i.v.; under urethane anesthesia; vs control (physiological saline)
Method: The effects of a cholinergic agent (detrusor contracting agent: bethanechol) and an al blocker (urethra relaxation agent: tamsulosin) on vesicourethral dyssynergia were evaluated.
The dysuria models in the present example were prepared by treating 10-week-old female Wistar rats with STZ (65 mg/kg, i.p.). The Sham group was prepared by treating the rats with a citric acid buffer solution instead of STZ. Four weeks after the preparation of the models, the intravesical and urethral pressure was measured under urethane anesthesia, thereby evaluating the effects of the test drugs (vehicle: physiological saline solution, bethanechol 1 mg/kg i.v., and tamsulosin 0.3 mg/kg i.v.) with regard to the cooperation of the bladder and the urethra.

[2] = test system: dysuria model rat (STZ-treated female Wistar rats); test: Effect of ameliorating vesicourethral dyssynergia in dysuria model rat (Test Example 1); conditions: STZ 65 mg/kg i.p. model; 30 mg/kg p.o. twice a day for four weeks starting four weeks after model preparation; measured under urethane anesthesia; control (6% Gelucire) 3.7±0.7
Method: The effect of 3-(15-hydroxypentadecyl)-2,4,4-trimethyl-2-cyclohexene-1-one (hereinafter referred to as “Compound 1 of the present invention”) on vesicourethral dyssynergia was evaluated.
The dysuria models in this example were prepared by treating 10-week-old female Wistar rats with streptozotocin (hereinafter referred to as STZ; in an amount of 65 mg/kg, i.p.). The Sham group was prepared by treating the rats with a citric acid buffer solution instead of STZ. The test drugs (vehicle: 6% Gelucire, Compound 1 of the present invention 30 mg/kg) were orally administered to each group after four weeks from the preparation of the models (at a time dysuria is assumed to be developed) twice a day for four weeks. On the day following the final administration, the intravesical and urethral pressure was measured under urethane anesthesia, thereby evaluating the cooperation of the bladder and the urethra.
Further, in contrast to the control group receiving vehicle (6% Gelucire) having a time lag of 3.7±0.7 seconds, the time lag in the group receiving Compound 1 of the present invention was reduced to 2.0±0.4 seconds, showing a significant effect of ameliorating vesicourethral dyssynergia.

[3] = test system: dysuria model rat (STZ-treated female Wistar rats); test: Effect on maximum voiding quantity in dysuria model rat (Test Example 2); conditions: 30 mg/kg p.o. twice a day for four weeks, under urethane anesthesia, Sham 1.45 ± 0.14, Control 2.25 ± 0.68, *p < 0.05 vs. control
Method: The dysuria models in this example were prepared in the same manner as in Test Example 1 by treating 10-week-old female Wistar rats with STZ (65 mg/kg, i.p.). The test drugs (vehicle: 6% Gelucire, Compound 1 of the present invention 30 mg/kg) were orally administered to each group after four weeks from the preparation of the models (at a time dysuria is assumed to be developed) twice a day for four weeks. On the day following the final administration, the maximum voiding quantity was measured under urethane anesthesia.

[4] = test system: model rat having spinal cord injury (female Wistar rats); test: Effect on voiding dysfunction based on vesicourethral dyssynergia in spinal cord injury model rat (Test Example 3); conditions: spinal cord injury model (Th8-9); 250 mg/kg p.o. once a day for four weeks; vs control group (6% Gelucire)
Method: The effect of Compound 1 of the present invention on dysuria was evaluated using a model rat having spinal cord injury, which is a typical disease causing dysuria due to vesicourethral dyssynergia.
The dysuria models in this example were prepared by placing a 40 g weight on the spinal cord in the eighth to ninth thoracic vertebrae (Th8-9) of 7-week-old female Wistar rats for 30 minutes.
The test drugs (vehicle: 6% Gelucire, Compound 1 of the present invention 250 mg/kg) were orally administered to each group from the day following the preparation of the models once a day for four weeks. On the day following the final administration, cystometry was performed in a wakeful state, thereby evaluating the voiding function (micturition efficiency).

SMILES	effect on extension of the time lag between the bladder contraction and the urethra relaxation [1]	time lag between the bladder contraction and the urethra relaxation [2]	Maximum voided volme [3]	micturition efficiency (cystometry in a wakeful state) [4]
CC(C[N+](C)(C)C)OC(N)=O (centres unmarked) [Bethanechol, bethanechol]	no effects			
CC1=C(CCCCCCCCCCCCCCCO)C(C)(C)CCC1=O [Compound 1 of the present invention, 3-(15-hydroxypentadecyl)-2,4,4-trimethyl-2-cyclohexene-1-one]		2.0 ± 0.4 s	4.44 ± 0.85* mL	significant increase in micturition efficiency
CCOc1ccccc1OCCN[C@H](C)Cc1ccc(OC)c(S(N)(=O)=O)c1 [tamsulosin]	no effects			

— patent US9271948B2, “Agent for improving vesicourethral dyssynergia” (TAIHO PHARMACEUTICAL CO., LTD., priority 2013, dated 2016)
